Reference: US7420056B2, “Substituted bicyclic imidazo-3-ylamine compounds” (Gruenenthal GmbH, priority 2004, dated 2008)
Where a name gives a salt, the structure may show the parent alone.

target: mGluR5 receptor (Sus scrofa, UniProt I3LUI7); experiment: Affinity for the mGluR5 receptor: inhibition of 3[H]-MPEP binding in pig brain homogenate; conditions: 10 μM compound, 5 nM 3[H]-MPEP, read-out: mGluR5 receptor inhibition of ^3[H]-MPEP binding [10 μM] in % at a concentration of the example compounds of 10 μM
Procedure, shortened: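 Test compounds were screened at 10 μM for displacement of 5 nM [3H]-MPEP from pig brain homogenate (450 μg protein, pH 8.0 Hepes buffer) over 60 min at room temperature. After filtration, scintillation counting gave the read-out. 10 μM unlabelled MPEP set nonspecific binding.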

Chain of mGluR5 receptor (I3LUI7 19-1212): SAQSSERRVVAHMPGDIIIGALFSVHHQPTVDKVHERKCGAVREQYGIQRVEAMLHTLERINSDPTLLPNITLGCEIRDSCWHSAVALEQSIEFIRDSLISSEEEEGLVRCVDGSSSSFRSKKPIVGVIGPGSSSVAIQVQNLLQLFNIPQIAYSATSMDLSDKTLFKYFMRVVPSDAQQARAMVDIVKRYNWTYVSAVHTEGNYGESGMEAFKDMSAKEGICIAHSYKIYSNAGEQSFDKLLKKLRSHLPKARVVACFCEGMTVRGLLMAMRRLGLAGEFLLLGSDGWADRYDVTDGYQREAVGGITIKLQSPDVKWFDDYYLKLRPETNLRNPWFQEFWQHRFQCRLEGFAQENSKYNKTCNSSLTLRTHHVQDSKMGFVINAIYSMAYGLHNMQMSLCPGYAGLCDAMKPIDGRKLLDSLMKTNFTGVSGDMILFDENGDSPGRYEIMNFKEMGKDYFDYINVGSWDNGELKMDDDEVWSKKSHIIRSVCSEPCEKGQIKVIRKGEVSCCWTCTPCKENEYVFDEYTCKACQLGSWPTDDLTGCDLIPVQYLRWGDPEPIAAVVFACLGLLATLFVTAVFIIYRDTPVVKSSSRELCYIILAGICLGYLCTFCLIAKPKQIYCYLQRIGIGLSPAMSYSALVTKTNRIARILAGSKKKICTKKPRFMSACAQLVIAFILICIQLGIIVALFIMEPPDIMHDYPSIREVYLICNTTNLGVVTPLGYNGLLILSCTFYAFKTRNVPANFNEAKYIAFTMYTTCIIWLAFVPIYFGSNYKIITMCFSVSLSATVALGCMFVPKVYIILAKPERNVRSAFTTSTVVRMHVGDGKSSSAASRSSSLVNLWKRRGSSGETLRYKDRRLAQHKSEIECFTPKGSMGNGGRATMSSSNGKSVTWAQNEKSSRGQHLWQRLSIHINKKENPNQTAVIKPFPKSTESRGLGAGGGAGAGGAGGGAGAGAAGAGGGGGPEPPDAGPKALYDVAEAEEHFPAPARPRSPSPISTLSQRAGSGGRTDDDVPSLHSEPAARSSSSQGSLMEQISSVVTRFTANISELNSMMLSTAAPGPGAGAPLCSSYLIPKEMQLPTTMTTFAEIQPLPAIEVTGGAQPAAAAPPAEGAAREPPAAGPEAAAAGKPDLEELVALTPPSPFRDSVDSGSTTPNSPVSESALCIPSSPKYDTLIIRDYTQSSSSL

| inhibition at 10 µM [%] | SMILES |
| --- | --- |
| 75 | Cc1cc(C)n2c(NCc3ccc(F)cc3)c(-c3ccc(C#Cc4ccccc4)s3)nc2c1 [Example 52, [5,7-dimethyl-2-(5-phenylethynyl-thiophen-2-yl)-imidazo[1,2-a]pyridin-3-yl]-(4-fluoro-benzyl)-amine] |
| 33 | CC(C)(C)CC(C)(C)Nc1c(-c2cccc(C#Cc3ccccn3)c2)nc2ccc(Cl)cn12 [Example 313, 6-chloro-2-(3-(pyridin-2-ylethynyl)phenyl)-N-(2,4,4-trimethylpentan-2-yl)imidazo[1,2-a]pyridin-3-amine] |
| 82 | Cc1ccc2nc(-c3ccc(C#Cc4ccccc4)s3)c(NC(C)c3ccccc3)n2c1 (stereo not drawn) [Example 27, [6-methyl-2-(5-phenylethynyl-thiophen-2-yl)-imidazo[1,2-a]pyridin-3-yl]-(1-phenyl-ethyl)-amine] |
| 35 | C(#Cc1ccc(-c2nc3cnccn3c2NC2CCCCC2)s1)c1ccccc1 [Example 87, N-cyclohexyl-2-(5-(phenylethynyl)thiophen-2-yl)imidazo[1,2-a]pyrazin-3-amine] |
| 93 | CCc1ccn2c(NCc3ccccc3Cl)c(-c3ccc(C#Cc4ccccc4)s3)nc2c1 [Example 45, (2-chloro-benzyl)-[7-ethyl-2-(5-phenylethynyl-thiophen-2-yl)-imidazo[1,2-a]pyridin-3-yl]-amine] |
| 100 | Cc1cccn2c(NCC3CCCCC3)c(-c3ccc(C#Cc4ccccc4)s3)nc12 [Example 5, cyclohexylmethyl-[8-methyl-2-(5-phenylethynyl-thiophen-2-yl)-imidazo[1,2-a]pyridin-3-yl]-amine] |
| 43 | CC(C)(C)CC(C)(C)Nc1c(-c2ccc(C#Cc3ccccc3)nc2)nc2ncccn12 [Example 256, 2-(6-(phenylethynyl)pyridin-3-yl)-N-(2,4,4-trimethylpentan-2-yl)imidazo[1,2-a]pyrimidin-3-amine] |
| 78 | Cc1ccc2nc(-c3ccc(C#Cc4ccccc4)s3)c(NC(C)(C)C)n2c1 [Example 19, tert-butyl-[6-methyl-2-(5-phenylethynyl-thiophen-2-yl)-imidazo[1,2-a]pyridin-3-yl]-amine] |
| 72 | CC(C)(C)CC(C)(C)Nc1c(-c2cccc(C#Cc3ccccn3)c2)nc2ccccn12 [Example 262, 2-(3-(pyridin-2-ylethynyl)phenyl)-N-(2,4,4-trimethylpentan-2-yl)imidazo[1,2-a]pyridin-3-amine] |

same assay, conditions: 3[H]-MPEP binding

| IC50 [nM] | SMILES |
| --- | --- |
| 880 | Cc1cccc(C#Cc2cccc(-c3nc4cnccn4c3NC(C)(C)C)c2)n1 [Example 117, N-tert-butyl-2-(3-((6-methylpyridin-2-yl)ethynyl)phenyl)imidazo[1,2-a]pyrazin-3-amine] |
| 620 | CC(=O)c1cccc(C#Cc2ccc(-c3nc4ccccn4c3NC(C)(C)C)s2)c1 [Example 340, 1-{3-[5-(3-tert-butylamino-imidazo[1,2-a]pyridin-2-yl)-thiophen-2-ylethynyl]-phenyl}-ethanone hydrochloride] |
| 1100 | C(#Cc1ccc(-c2nc3cnccn3c2NCc2ccccc2)s1)c1ccccc1 [Example 74, benzyl-[2-(5-phenylethynyl-thiophen-2-yl)-imidazo[1,2-a]pyrazin-3-yl]-amine] |
| 4240 | Cc1ccccc1C#Cc1ccc(-c2nc3cnccn3c2NC(C)(C)C)s1 [Example 162, N-tert-butyl-2-(5-(o-tolylethynyl)thiophen-2-yl)imidazo[1,2-a]pyrazin-3-amine hydrochloride] |
| 1360 | COc1cccnc1C#Cc1ccc(-c2nc3ccccn3c2NC(C)(C)C)s1 [Example 342, N-tert-butyl-2-(5-((3-methoxypyridin-2-yl)ethynyl)thiophen-2-yl)imidazo[1,2-a]pyridin-3-amine] |
| 71 | Cc1cccc(C#Cc2ccc(-c3nc4cnccn4c3NC(C)(C)C)s2)c1 [Example 139, N-tert-butyl-2-(5-(m-tolylethynyl)thiophen-2-yl)imidazo[1,2-a]pyrazin-3-amine] |
